Earlier results as cited in patent US6057161A (priority 1997, dated 2000).
Where two headings read alike, the source gives them in different places.

| Structure (SMILES) | metabolism, accumulation or excretion (in words) (body) | time found in the urine after administration of heroin (in vivo) | other results |
| --- | --- | --- | --- |
| CCCCCc1cc(O)c2c(c1)OC(C)(C)[C@@H]1CCC(C(=O)O)=C[C@@H]21 [THC-COOH] | excreted in the urine as a glucuronic acid conjugate at detectable levels |  |  |
| COC(=O)[C@H]1[C@@H](OC(=O)c2ccccc2)C[C@@H]2CC[C@H]1N2C [Cocaine] |  |  | metabolism, accumulation or excretion (in words) (in vivo): rapidly metabolized in the body |
| CN1CC[C@]23c4c5ccc(O[C@@H]6O[C@H](C(=O)O)[C@@H](O)[C@H](O)[C@H]6O)c4O[C@H]2[C@@H](O)C=C[C@H]3[C@H]1C5 [Morphine-3-glucoronide, morphine-3-glucuronide] |  | up to 40 hours |  |
| CN1[C@H]2CC[C@@H]1[C@@H](C(=O)O)[C@@H](OC(=O)c1ccccc1)C2 [Benzoylecgonine] | can be detected in the urine for a longer period of time than ecgonine methyl ester |  |  |
| CN1CC[C@]23c4c5ccc(O)c4O[C@H]2[C@@H](O)C=C[C@H]3[C@H]1C5 [Morphine] |  | up to 40 hours |  |
